{"source": "patent US8697632B2", "about": "(priority 2008, dated 2014)", "key": {"[1]": {"assay": "Rate of model dipeptide cleavage in PBS (model hexapeptide)", "conditions": "Table 2, dipeptide on side chain of N-terminal para-amino-Phe of HSRGTF-NH2", "protocol": "The rate of cleavage was determined for the respective propeptides. The concentrations of the propeptides and the model parent peptide were determined by their respective peak areas. […] The slope of this plot provides the rate constant ‘k’."}, "[2]": {"assay": "Dipeptide cleavage from prodrug forms of IGF1 peptides in PBS", "type": "physicochemical", "conditions": "pH 7.4 at 37° C.", "experimental": "The rate of cleavage was determined for the respective propeptides. The concentrations of the propeptides and the model parent peptide were determined by their respective peak areas. The first order dissociation rate constants of the prodrugs were determined by plotting the logarithm of the concentration of the prodrug at various time intervals. The slope of this plot provides the rate constant ‘k’.\nThe IGF^B16B17 derivative peptide prodrugs were incubated in PBS, pH 7.4 at 37° C. and at predetermined time intervals an aliquot was taken and further degredation was quenched with 0.1% TFA and the aliquot was subjected to analytical HPLC analysis."}, "[3]": {"conditions": "cited from earlier work"}, "IGF-1 receptor": {"molecular_target": "T1, IGF-1 receptor (Homo sapiens, UniProt P08069)", "T1 construct": "expressed in transfected cells; plasma membrane fragments", "T1 sequence (P08069 31-736 limits assumed)": "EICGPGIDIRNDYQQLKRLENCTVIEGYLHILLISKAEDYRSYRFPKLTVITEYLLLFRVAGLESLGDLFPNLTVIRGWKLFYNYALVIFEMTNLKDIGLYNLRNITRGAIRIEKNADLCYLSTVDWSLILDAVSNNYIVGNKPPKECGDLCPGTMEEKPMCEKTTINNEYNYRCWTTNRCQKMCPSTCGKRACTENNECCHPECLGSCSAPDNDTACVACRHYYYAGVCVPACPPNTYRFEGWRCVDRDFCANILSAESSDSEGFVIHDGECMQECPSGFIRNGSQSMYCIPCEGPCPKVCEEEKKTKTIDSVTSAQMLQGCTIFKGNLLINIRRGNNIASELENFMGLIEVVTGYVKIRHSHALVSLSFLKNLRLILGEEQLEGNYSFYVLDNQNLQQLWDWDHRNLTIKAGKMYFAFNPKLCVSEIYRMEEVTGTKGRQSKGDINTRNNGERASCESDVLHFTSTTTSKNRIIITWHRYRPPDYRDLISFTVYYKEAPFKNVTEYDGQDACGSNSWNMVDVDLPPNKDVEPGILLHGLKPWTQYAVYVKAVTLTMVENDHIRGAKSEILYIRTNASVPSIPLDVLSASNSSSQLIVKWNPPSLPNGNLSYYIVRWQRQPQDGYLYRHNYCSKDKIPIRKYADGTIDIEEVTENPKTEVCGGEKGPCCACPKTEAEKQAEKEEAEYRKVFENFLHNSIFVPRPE", "T1 sequence (P08069 741-1367 limits assumed)": "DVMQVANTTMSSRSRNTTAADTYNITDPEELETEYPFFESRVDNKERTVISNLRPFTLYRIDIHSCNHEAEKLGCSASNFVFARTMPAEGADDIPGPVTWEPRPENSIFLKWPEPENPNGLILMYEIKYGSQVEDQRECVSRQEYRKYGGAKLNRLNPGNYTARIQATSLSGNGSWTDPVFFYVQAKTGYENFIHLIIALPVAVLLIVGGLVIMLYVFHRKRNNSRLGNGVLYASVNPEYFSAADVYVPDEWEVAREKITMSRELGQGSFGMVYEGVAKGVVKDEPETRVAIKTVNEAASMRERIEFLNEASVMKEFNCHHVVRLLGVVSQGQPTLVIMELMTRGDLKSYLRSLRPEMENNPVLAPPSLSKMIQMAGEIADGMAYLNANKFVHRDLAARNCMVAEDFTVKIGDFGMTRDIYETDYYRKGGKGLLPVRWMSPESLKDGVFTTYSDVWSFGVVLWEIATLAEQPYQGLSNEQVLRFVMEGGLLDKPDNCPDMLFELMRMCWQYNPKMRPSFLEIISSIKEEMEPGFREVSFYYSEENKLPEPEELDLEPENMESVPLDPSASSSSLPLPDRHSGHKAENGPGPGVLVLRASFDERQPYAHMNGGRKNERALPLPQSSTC", "assay": "IGF-1 receptor competition binding assay (scintillation proximity)", "conditions": "Table 9"}, "insulin receptor": {"molecular_target": "T2, insulin receptor (Homo sapiens, UniProt P06213)", "T2 construct": "expressed in transfected cells; plasma membrane fragments", "T2 sequence (P06213 28-758 limits assumed)": "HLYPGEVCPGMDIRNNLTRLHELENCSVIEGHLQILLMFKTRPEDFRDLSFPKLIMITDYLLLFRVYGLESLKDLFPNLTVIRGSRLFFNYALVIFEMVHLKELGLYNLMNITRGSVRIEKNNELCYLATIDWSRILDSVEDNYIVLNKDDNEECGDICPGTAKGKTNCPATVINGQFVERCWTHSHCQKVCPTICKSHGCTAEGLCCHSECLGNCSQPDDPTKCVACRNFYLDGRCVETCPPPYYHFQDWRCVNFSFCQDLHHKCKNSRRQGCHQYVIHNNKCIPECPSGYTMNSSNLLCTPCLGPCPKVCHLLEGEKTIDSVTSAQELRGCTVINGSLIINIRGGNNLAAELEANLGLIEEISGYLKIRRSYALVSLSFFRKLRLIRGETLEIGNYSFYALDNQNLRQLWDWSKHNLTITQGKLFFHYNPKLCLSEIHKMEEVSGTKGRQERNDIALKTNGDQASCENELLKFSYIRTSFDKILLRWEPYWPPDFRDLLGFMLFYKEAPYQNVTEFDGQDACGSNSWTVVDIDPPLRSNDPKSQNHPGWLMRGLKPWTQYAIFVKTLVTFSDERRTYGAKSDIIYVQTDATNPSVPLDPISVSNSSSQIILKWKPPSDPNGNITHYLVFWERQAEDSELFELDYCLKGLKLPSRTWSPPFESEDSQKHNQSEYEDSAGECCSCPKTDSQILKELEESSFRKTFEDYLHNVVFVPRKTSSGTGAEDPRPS", "T2 sequence (P06213 763-1382 limits assumed)": "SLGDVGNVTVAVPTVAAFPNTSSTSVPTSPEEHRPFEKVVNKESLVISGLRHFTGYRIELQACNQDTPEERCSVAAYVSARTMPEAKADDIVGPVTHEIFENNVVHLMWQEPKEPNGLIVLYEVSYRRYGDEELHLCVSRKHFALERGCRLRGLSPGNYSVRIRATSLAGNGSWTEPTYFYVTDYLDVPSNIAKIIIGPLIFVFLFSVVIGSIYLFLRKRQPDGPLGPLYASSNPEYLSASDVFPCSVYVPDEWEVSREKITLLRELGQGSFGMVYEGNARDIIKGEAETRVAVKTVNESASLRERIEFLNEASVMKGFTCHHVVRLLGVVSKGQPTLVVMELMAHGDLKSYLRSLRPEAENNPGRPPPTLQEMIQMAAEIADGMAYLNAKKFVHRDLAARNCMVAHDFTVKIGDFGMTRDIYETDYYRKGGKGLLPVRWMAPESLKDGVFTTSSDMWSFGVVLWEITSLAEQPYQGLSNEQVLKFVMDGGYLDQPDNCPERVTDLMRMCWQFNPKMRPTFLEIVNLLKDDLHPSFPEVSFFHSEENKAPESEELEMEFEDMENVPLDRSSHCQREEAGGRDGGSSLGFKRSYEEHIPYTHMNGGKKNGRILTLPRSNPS", "assay": "Insulin receptor competition binding assay (scintillation proximity)", "conditions": "Table 9; for Ratio: IGF-1 receptor vs insulin receptor binding"}, "[4]": {"conditions": "cited from earlier work", "remark": "listed apart in the source"}, "[5]": {"conditions": "in vivo; cited from earlier work"}}, "note": "pIC50: −log10 of the molar value. “And” between values parts separate entries of the source, which are not always exact repeats. Identical values can stand only once. Peptide text beside a SMILES is read from it.", "data": [{"compound": "C[C@@H](O)[C@H](NC(=O)CNC(=O)[C@H](CCCNC(=N)N)NC(=O)[C@H](CO)NC(=O)[C@H](Cc1c[nH]cn1)NC(=O)[C@@H](N)Cc1ccc(NC(=O)CNC(=O)CO)cc1)C(=O)N[C@@H](Cc1ccccc1)C(N)=O", "note": "[Compound 19]", "values": [{"measurement": "t1/2 (result in words)", "setting": "[1]", "result": "No cleavage"}]}, {"compound": "CC[C@H](C)[C@H](NC(=O)CN)C(=O)N[C@H](C(=O)N[C@@H](CC(=O)O)C(=O)N[C@@H](CCC(=O)O)C(=O)N[C@@H](C)C(=O)N[C@@H](C)C(=O)N[C@@H](Cc1ccccc1)C(=O)N[C@@H](CCCNC(=N)N)C(=O)N[C@@H](CO)C(=O)N[C@@H](C)C(=O)N[C@@H](CC(=O)O)C(=O)N[C@@H](CC(C)C)C(=O)N[C@@H](CCCNC(=N)N)C(=O)N[C@@H](CCCNC(=N)N)C(=O)N[C@@H](CC(C)C)C(=O)N[C@@H](CCC(=O)O)C(=O)N[C@@H](CCSC)C(=O)N[C@@H](Cc1ccc(NC(=O)[C@@H]2CCCN2C(=O)C(C)(C)N)cc1)C(=O)N[C@@H](C)C(=O)N[C@@H](C)C(N)=O)C(C)C", "note": "[AiB Pro] (HELM PEPTIDE1{G.I.V.D.E.A.A.F.R.S.A.D.L.R.R.L.E.M.[O=C([C@H](Cc1ccc(N[*:3])cc1)N[*:1])[*:2]].A.A.[am]}|PEPTIDE2{[Aib].P}$PEPTIDE1,PEPTIDE2,19:R3-2:R2$$$V2.0)", "values": [{"measurement": "dipeptide cleavage / conversion to active form (in words)", "setting": "[2]", "result": "spontaneous, non-enzymatic conversion"}]}, {"compound": "[GlyA21, ArgB31, ArgB32]insulin", "values": [{"measurement": "IGF-1 affinity (in words)", "setting": "[3]", "result": "enhanced IGF-1 affinity"}]}, {"compound": "CC[C@H](C)[C@H](NC(=O)CN)C(=O)N[C@H](C(=O)N[C@@H](CC(=O)O)C(=O)N[C@@H](CCC(=O)O)C(=O)N[C@H]1CSSC[C@@H]2NC(=O)[C@H](CO)NC(=O)[C@H](CCCNC(=N)N)NC(=O)[C@H](Cc3ccccc3)NC(=O)[C@H](CSSC[C@H](NC(=O)[C@H](CC(C)C)NC(=O)[C@@H](NC(=O)[C@H](CCC(=O)O)NC(=O)[C@@H]3CCCN3C(=O)CN)[C@@H](C)O)C(=O)NCC(=O)N[C@@H](C)C(=O)N[C@@H](CCC(=O)O)C(=O)N[C@@H](CC(C)C)C(=O)N[C@@H](C(C)C)C(=O)N[C@@H](CC(=O)O)C(=O)N[C@@H](C)C(=O)N[C@@H](CC(C)C)C(=O)N[C@@H](Cc3ccc(O)cc3)C(=O)N[C@@H](CC(C)C)C(=O)N[C@@H](C(C)C)C(=O)N[C@H](C(=O)NCC(=O)N[C@@H](CC(=O)O)C(=O)N[C@@H](CCCNC(=N)N)C(=O)NCC(=O)N[C@@H](Cc3ccccc3)C(=O)N[C@@H](Cc3ccc(O)cc3)C(=O)N[C@@H](Cc3ccccc3)C(=O)N[C@@H](CC(N)=O)C(=O)N[C@@H](CCCCN)C(=O)N3CCC[C@H]3C(=O)N[C@H](C(N)=O)[C@@H](C)O)CSSC[C@@H](C(=O)N[C@@H](C)C(N)=O)NC(=O)[C@H](Cc3ccc(O)cc3)NC(=O)[C@H](CCSC)NC(=O)[C@H](CCC(=O)O)NC(=O)[C@H](CC(C)C)NC(=O)[C@H](CCCNC(=N)N)NC(=O)[C@H](CCCNC(=N)N)NC(=O)[C@H](CC(C)C)NC(=O)[C@H](CC(=O)O)NC2=O)NC1=O)C(C)C", "note": "[IGF-1 A:B(E10Y16L17)]", "values": [{"measurement": "pIC50", "setting": "IGF-1 receptor; IGF-1 Receptor IC50:", "result": 7.91}]}, {"compound": "CC[C@H](C)[C@H](NC(=O)CN)C(=O)N[C@H](C(=O)N[C@@H](CC(=O)O)C(=O)N[C@@H](CCC(=O)O)C(=O)N[C@H]1CSSC[C@@H]2NC(=O)[C@H](CO)NC(=O)[C@H](CCCNC(=N)N)NC(=O)[C@H](Cc3ccccc3)NC(=O)[C@H](CSSC[C@H](NC(=O)[C@H](CC(C)C)NC(=O)[C@@H](NC(=O)[C@H](CCC(=O)O)NC(=O)[C@@H]3CCCN3C(=O)CN)[C@@H](C)O)C(=O)NCC(=O)N[C@@H](CO)C(=O)N[C@@H](Cc3c[nH]cn3)C(=O)N[C@@H](CC(C)C)C(=O)N[C@@H](C(C)C)C(=O)N[C@@H](CCC(=O)O)C(=O)N[C@@H](C)C(=O)N[C@@H](CC(C)C)C(=O)N[C@@H](Cc3ccc(O)cc3)C(=O)N[C@@H](CC(C)C)C(=O)N[C@@H](C(C)C)C(=O)N[C@H](C(=O)NCC(=O)N[C@@H](CC(=O)O)C(=O)N[C@@H](CCCNC(=N)N)C(=O)NCC(=O)N[C@@H](Cc3ccccc3)C(=O)N[C@@H](Cc3ccc(O)cc3)C(=O)N[C@@H](Cc3ccccc3)C(=O)N[C@@H](CC(N)=O)C(=O)N[C@@H](CCCCN)C(=O)N3CCC[C@H]3C(=O)N[C@H](C(N)=O)[C@@H](C)O)CSSC[C@@H](C(=O)N[C@@H](C)C(N)=O)NC(=O)[C@H](Cc3ccc(O)cc3)NC(=O)[C@H](CCSC)NC(=O)[C@H](CCC(=O)O)NC(=O)[C@H](CC(C)C)NC(=O)[C@H](CCCNC(=N)N)NC(=O)[C@H](CCCNC(=N)N)NC(=O)[C@H](CC(C)C)NC(=O)[C@H](CC(=O)O)NC2=O)NC1=O)C(C)C", "values": [{"measurement": "Ratio", "setting": "insulin receptor", "result": 82.6}]}, {"compound": "C[C@@H](O)[C@H](NC(=O)CNC(=O)[C@H](CCCNC(=N)N)NC(=O)[C@H](CO)NC(=O)[C@H](Cc1c[nH]cn1)NC(=O)[C@@H](N)Cc1ccc(NC(=O)CNC(=O)CN)cc1)C(=O)N[C@@H](Cc1ccccc1)C(N)=O", "note": "[Compound 18]", "values": [{"measurement": "t1/2 (result in words)", "setting": "[1]", "result": "No cleavage"}]}, {"compound": "CC[C@H](C)[C@H](NC(=O)CN)C(=O)N[C@H](C(=O)N[C@@H](CC(=O)O)C(=O)N[C@@H](CCC(=O)O)C(=O)N[C@H]1CSSC[C@@H]2NC(=O)[C@H](CO)NC(=O)[C@H](CCCNC(=N)N)NC(=O)[C@H](Cc3ccccc3)NC(=O)[C@H](CSSC[C@H](NC(=O)[C@H](CC(C)C)NC(=O)[C@H](Cc3c[nH]cn3)NC(=O)[C@H](CCC(=O)O)NC(=O)[C@@H]3CCCN3C(=O)CN)C(=O)NCC(=O)N[C@@H](C)C(=O)N[C@@H](CC(=O)O)C(=O)N[C@@H](CC(C)C)C(=O)N[C@@H](C(C)C)C(=O)N[C@@H](CC(=O)O)C(=O)N[C@@H](C)C(=O)N[C@@H](CC(C)C)C(=O)N[C@@H](Cc3ccc(O)cc3)C(=O)N[C@@H](CC(C)C)C(=O)N[C@@H](C(C)C)C(=O)N[C@H](C(=O)NCC(=O)N[C@@H](CC(=O)O)C(=O)N[C@@H](CCCNC(=N)N)C(=O)NCC(=O)N[C@@H](Cc3ccccc3)C(=O)N[C@@H](Cc3ccc(O)cc3)C(N)=O)CSSC[C@@H](C(=O)N[C@@H](C)C(N)=O)NC(=O)[C@H](Cc3ccc(O)cc3)NC(=O)[C@H](CC[S+](C)[O-])NC(=O)[C@H](CCC(=O)O)NC(=O)[C@H](CC(C)C)NC(=O)[C@H](CCCNC(=N)N)NC(=O)[C@H](CCCNC(=N)N)NC(=O)[C@H](CC(C)C)NC(=O)[C@H](CC(=O)O)NC2=O)NC1=O)C(C)C", "note": "(stereo partly shown) [IGF-1 A:B (H5D10Y16L17) (S═O)DPI]", "values": [{"measurement": "IC50", "setting": "insulin receptor; read-out: Insulin Receptor nM IC50:", "result": 0.25, "unit": "nM"}]}, {"compound": "CC[C@H](C)[C@H](NC(=O)CN)C(=O)N[C@H](C(=O)N[C@@H](CC(=O)O)C(=O)N[C@@H](CCC(=O)O)C(=O)N[C@H]1CSSC[C@@H]2NC(=O)[C@H](CO)NC(=O)[C@H](CCCNC(=N)N)NC(=O)[C@H](Cc3ccccc3)NC(=O)[C@H](CSSC[C@H](NC(=O)[C@H](CC(C)C)NC(=O)[C@H](Cc3c[nH]cn3)NC(=O)[C@H](CCC(N)=O)NC(=O)[C@H](CC(N)=O)NC(=O)[C@@H](NC(=O)[C@@H](N)Cc3ccccc3)C(C)C)C(=O)NCC(=O)N[C@@H](CO)C(=O)N[C@@H](Cc3c[nH]cn3)C(=O)N[C@@H](CC(C)C)C(=O)N[C@@H](C(C)C)C(=O)N[C@@H](CCC(=O)O)C(=O)N[C@@H](C)C(=O)N[C@@H](CC(C)C)C(=O)N[C@@H](Cc3ccc(O)cc3)C(=O)N[C@@H](CC(C)C)C(=O)N[C@@H](C(C)C)C(=O)N[C@H](C(=O)NCC(=O)N[C@@H](CC(=O)O)C(=O)N[C@@H](CCCNC(=N)N)C(=O)NCC(=O)N[C@@H](Cc3ccccc3)C(=O)N[C@@H](Cc3ccc(O)cc3)C(=O)N[C@@H](Cc3ccccc3)C(=O)N[C@@H](CC(N)=O)C(=O)N[C@@H](CCCCN)C(=O)N3CCC[C@H]3C(=O)N[C@H](C(N)=O)[C@@H](C)O)CSSC[C@@H](C(=O)N[C@@H](C)C(N)=O)NC(=O)[C@H](Cc3ccc(O)cc3)NC(=O)[C@H](CCSC)NC(=O)[C@H](CCC(=O)O)NC(=O)[C@H](CC(C)C)NC(=O)[C@H](CCCNC(=N)N)NC(=O)[C@H](CCCNC(=N)N)NC(=O)[C@H](CC(C)C)NC(=O)[C@H](CC(=O)O)NC2=O)NC1=O)C(C)C", "note": "[IGF-1 A:In (1-17)-IGF-1 B (18-30)]", "values": [{"measurement": "IGF-1 Receptor % IGF-1 (in test)", "setting": "IGF-1 receptor", "result": 0.9, "unit": "%"}, {"measurement": "Insulin Receptor % insulin (in test)", "setting": "insulin receptor", "result": "14.0% and 11.3% and 20.1%"}, {"measurement": "Ratio", "setting": "insulin receptor", "result": 22.6}, {"measurement": "Insulin Receptor % native insulin activity (0.6 nM)", "setting": "insulin receptor; relative to 0.6 nM", "result": "21.7% and 22.5% and 24.2%"}]}, {"compound": "[LysB29-tetradecanoyl, des(B30)]insulin", "values": [{"measurement": "potency in vivo (in words)", "setting": "[4]", "result": "reduced potency in vivo"}, {"measurement": "plasma half life (in words)", "setting": "[5]", "result": "increased plasma half life"}]}]}
